The numbers were not newly measured in patent US7790164B2, “Fragments of antibodies to epidermal growth factor receptor and methods of their use” (Van Andel Research Institute, priority 2007, dated 2010), which cites them from elsewhere.

In this series the test system is A431 cells. The conditions noted are these: Ojima et al. J Med Chem 2002, read-out: IC50 of A431 to paclitaxel; cited from earlier work.

Broadly, the IC50 is the concentration that gives 50% inhibition. `CC(=O)O[C@H]1C(=O)[C@@]2(C)[C@H]([C@H](OC(=O)c3ccccc3)[C@]3(O)C[C@H](OC(=O)[C@H](O)[C@@H](NC(=O)c4ccccc4)c4ccccc4)C(C)=C1C3(C)C)[C@]1(OC(C)=O)CO[C@@H]1C[C@@H]2O` [paclitaxel]: the IC50 was around 0.09 nM.
